From patent publication US11160282B2, “Use of a composition and method for reducing bacterial spores in pulp suspension” (Kemira Oyj, priority 2016, dated 2021)

Legend:
Format in all cases: cell-based
total aerobes = test: Example 4 (reference): laboratory test, broke sample, total aerobes count; settings: broke 1.0% consistency, pH 7.8, ORP +146 mV; 10 ppm active chlorine, 1 day contact time; untreated 650 000 cfu/ml
Experimental: (§1) This laboratory test was performed in order to test killing effect of sodium hypochlorite against total aerobes and aerobic spores in broke sample (consistency 1.0%, pH 7.8, ORP +146 mV) taken from an alkaline board machine, which produces 3-ply food packaging board. Total aerobes and aerobic spore counts were quantitated by using plate count agar (+45° C./+37° C., 2 days incubation). Prior to the bacterial spore determination, samples were pasteurized at +80° C. for 20 min.

aerobic spores [1] = test: Example 4 (reference): laboratory test, broke sample, aerobic spore count; settings: broke 1.0% consistency, pH 7.8, ORP +146 mV; 10 ppm active chlorine, 1 day contact time; untreated 70 cfu/ml
Experimental: as §1

aerobic spores [2] = test: Example 5: pilot paper machine test, aerobic spores in dry paper (ISO 8784-1); settings: glutaraldehyde alone, 50 ppm as active agent, 5 min post-treatment of pulp suspension (reference paper)
Experimental: This test was performed in a pilot paper machine producing 1-ply paper. Aim of the test was to verify efficacy of the invention to provide a low quantity of aerobic bacteria and aerobic bacterial spores in dry paper end-product. Composition 1-5 comprising 40 weight-% of dodecylamine, 40 weight-% of dipropylene glycol and 20 weight-% of water was used according to the invention. It was dosed as 100, 150 or 300 mg/l into pulp suspension with 2.25% consistency. The pulp suspension was then mixed 120 rpm for 30 min at +40° C. The pulp suspension was made from a batch of authentic, spore-contaminated folding-box board with average spore content of 7000 cfu/gram of dry board. All pulp suspensions in the pilot paper machine were also post-treated (5 min, 120 rpm) with glutaraldehyde (dose: 50 ppm as active agent) in order to maintain control of vegetative bacterial cells in the pilot machine. Total aerobic bacteria (without pasteurization) and aerobic spores (with pasteurization step at +82° C. for 10 min) were quantified from the dry paper end product according to the ISO 8784-1 standard for microbiological examination of paper and board.

SMILES | total aerobes (total aerobes) | aerobic spores (aerobic spores [1]) [cfu/ml] | effect on spore contamination in the produced paper (aerobic spores [2])
OCl [Sodium hypochlorite, sodium hypochlorite] | 390 000 cfu/ml | 60 | –
O=CCCCC=O [glutaraldehyde] | – | – | not alone capable to lower spore contamination
